Data on 99 sequences can be found in the OligoGym collection.

Where “and” joins values, the source holds several entries; their conditions need not be identical. Equal entries are not always repeated. After the bases stand the sugars from the 5' end (letter, count) and the backbone: PS all phosphorothioate, else s phosphorothioate and o phosphodiester by linkage. Methylation of C is not given here. k = constrained ethyl (cEt); d = 2'-deoxy (DNA)

The data set addresses MALAT1. Particulars: ASO, A431, 0.005 µM.
Turning to GAATACCATCTGAAAG (sugars k3 d10 k3, PS), the target mRNA inhibition came out at 16%. The value for GAATGTTTCTTGTCAC (sugars k3 d10 k3, PS) was 43%; that for GAATTACTTCCGTTAC (sugars k3 d10 k3, PS) was 36%; that for GACCCTACTGAAGAGC (sugars k3 d10 k3, PS) was 32%. With GACCTCGACACCATCG (sugars k3 d10 k3, PS), the target mRNA inhibition was found to be 44%. The value for GACCTGAAGTCAAGAC (sugars k3 d10 k3, PS) was -1%; that for GACGGTTGAGAAGTGG (sugars k3 d10 k3, PS) was 25%. Consider GACTAAAGGCTTCAGT (sugars k3 d10 k3, PS), for which the target mRNA inhibition was found to be 15%. As to GACTCTGGGAAACCTG (sugars k3 d10 k3, PS), the target mRNA inhibition worked out at 1%. The value for GAGAAATCGGAGCAGC (sugars k3 d10 k3, PS) was 15%; that for GAGAAGAATCCCCCCC (sugars k3 d10 k3, PS) was 17%; that for GAGATTTGGGCTTTAT (sugars k3 d10 k3, PS) was 34% and 33%. Take GAGCAGCACGGGCTGT (sugars k3 d10 k3, PS): the target mRNA inhibition turned out to be 14%. Turning to GAGGCTGACACTTCTC (sugars k3 d10 k3, PS), the target mRNA inhibition was -10%. For the sequence GAGTTTGAGTGGTTTT (sugars k3 d10 k3, PS), the target mRNA inhibition was 26%. With GATCACTTTAGAGGCT (sugars k3 d10 k3, PS) the figure was -8%; with GATCTGGTCCATTAAA (sugars k3 d10 k3, PS), 25%; with GATGTATATAGTTCAA (sugars k3 d10 k3, PS), 7%. The value for GATTAGTAGTCAAAGC (sugars k3 d10 k3, PS) was 24%; that for GATTCATGAGTATAAG (sugars k3 d10 k3, PS) was 50%. For the sequence GATTTGAACCCCGTCC (sugars k3 d10 k3, PS), the target mRNA inhibition was -2%. With GCAAAATGGCGGACTT (sugars k3 d10 k3, PS) the figure was -4%; with GCAAAATGTACTCAGC (sugars k3 d10 k3, PS), 23%.

For GCAAATCGCCATGGAA (sugars k3 d10 k3, PS), the target mRNA inhibition is 21%. With GCAAGTTAAACTTATC (sugars k3 d10 k3, PS) the figure was 42%; with GCACTCATATGCAATT (sugars k3 d10 k3, PS), 6%; with GCACTTTTAAAGTCTG (sugars k3 d10 k3, PS), 74% and 91%. GCAGAGTTTGAGTGGT (sugars k3 d10 k3, PS): the target mRNA inhibition is -9%. With GCAGGGACGGTTGAGA (sugars k3 d10 k3, PS) the figure was 8%; with GCATCTAGGCCATCAT (sugars k3 d10 k3, PS), 57%. With GCATTCCCACCCAAAA (sugars k3 d10 k3, PS) the figure was 34%. With GCCAACAGCACAGCGG (sugars k3 d10 k3, PS) the figure was 8%. For the sequence GCCAAGCCAAGCCGCC (sugars k3 d10 k3, PS), the target mRNA inhibition turned out to be 14%. The value for GCCAAGCCGCCTGCTA (sugars k3 d10 k3, PS) was 20%.

Take GCCATGGTTGATATTT (sugars k3 d10 k3, PS): the target mRNA inhibition came out at 9%. The value for GCCCCCCAGTTGCCGC (sugars k3 d10 k3, PS) was -35%.

Turning to GCCGCCTCTTAAAGCA (sugars k3 d10 k3, PS), the target mRNA inhibition is -11%. With GCCTACCGCACAGCTC (sugars k3 d10 k3, PS), the target mRNA inhibition turned out to be 26%. The value for GCCTATCTTCTCCAGT (sugars k3 d10 k3, PS) was 27%; that for GCCTCAATCCCACACC (sugars k3 d10 k3, PS) was 2%; that for GCCTTGCAGGGACGGT (sugars k3 d10 k3, PS) was -10%. With GCGGGATCAGAACAGT (sugars k3 d10 k3, PS) the figure was 40%. The value for GCTACTGGCTGCATCG (sugars k3 d10 k3, PS) was 43%; that for GCTCTATACTTTGAAG (sugars k3 d10 k3, PS) was 51%; that for GCTGAGTGTTCCTGCA (sugars k3 d10 k3, PS) was 22%. Consider GCTGCATCGAGGTGAG (sugars k3 d10 k3, PS), for which the target mRNA inhibition came out at 24%. With GCTGGTTATGACTCAG (sugars k3 d10 k3, PS) the figure was 9%; with GCTTAAGAGGGCAGGA (sugars k3 d10 k3, PS), -7%. In the case of GCTTTCCCTGTGGCCT (sugars k3 d10 k3, PS), the target mRNA inhibition came out at 10%. With GGAAATCTTAGAAACG (sugars k3 d10 k3, PS) the figure was 36%; with GGAATACTCTTCCAAG (sugars k3 d10 k3, PS), 6%.

With GGACATCTCTTCCACA (sugars k3 d10 k3, PS), the target mRNA inhibition was found to be 24%. Regarding GGACATTGCCTCTTCA (sugars k3 d10 k3, PS), the target mRNA inhibition is 54%. In the case of GGACTTTCTCCCCCAA (sugars k3 d10 k3, PS), the target mRNA inhibition is -5%.

Regarding GGAGATCAGCTTCCGC (sugars k3 d10 k3, PS), the target mRNA inhibition was -7%. With GGATCCAAGCTACTGG (sugars k3 d10 k3, PS) the figure was 18%; with GGATTCTAGACAGACC (sugars k3 d10 k3, PS), 44%; with GGATTTTTACCAACCA (sugars k3 d10 k3, PS), 14%.

For the sequence GGCAAATCGCCATGGA (sugars k3 d10 k3, PS), the target mRNA inhibition came out at 22%.

Regarding GGCAGTTATATTAGGT (sugars k3 d10 k3, PS), the target mRNA inhibition was found to be 16%. With GGCCTTTTCTAACATA (sugars k3 d10 k3, PS) the figure was 2%; with GGCTATCAAATTCATT (sugars k3 d10 k3, PS), 42%. The value for GGCTATTACCTGAAAA (sugars k3 d10 k3, PS) was 6%; that for GGCTGGTTATGACTCA (sugars k3 d10 k3, PS) was 40%. As to GGCTTTAAATGACGCA (sugars k3 d10 k3, PS), the target mRNA inhibition was determined as 17%. On to GGGAAAAGTGGTTGCC (sugars k3 d10 k3, PS), for which the target mRNA inhibition stood at 9%.

As to GGGATTTGAACCCCGT (sugars k3 d10 k3, PS), the target mRNA inhibition was -1%. The value for GGGTTATGCTTATTCC (sugars k3 d10 k3, PS) was 28%. The value for GGTCAGGAGAAAGTGC (sugars k3 d10 k3, PS) was 18%; that for GGTTAAGCACTTTTAA (sugars k3 d10 k3, PS) was 38%. The value for GGTTACCAATAATTTC (sugars k3 d10 k3, PS) was 93%. Turning to GGTTTCCTCAAGCTCC (sugars k3 d10 k3, PS), the target mRNA inhibition stood at 34%. Regarding GTAAGAATTAAGACCA (sugars k3 d10 k3, PS), the target mRNA inhibition turned out to be 37%. For GTAAGCCCCACCCCCT (sugars k3 d10 k3, PS), the target mRNA inhibition was -35%. The value for GTAGGTATAGTTTACC (sugars k3 d10 k3, PS) was 39%; that for GTATGAGCTTCAGACC (sugars k3 d10 k3, PS) was -6%; that for GTCAATAGTGTAAAAC (sugars k3 d10 k3, PS) was 33%.

In the case of GTCAATTTATAGACCC (sugars k3 d10 k3, PS), the target mRNA inhibition was determined as 18%. The value for GTCCCATAACTGATCT (sugars k3 d10 k3, PS) was 35%; that for GTCCCTGAAGGTGTTC (sugars k3 d10 k3, PS) was 23%. The value for GTCCTTTTAGTAGCTT (sugars k3 d10 k3, PS) was 50% and 72%; that for GTCTAGGATCCTCTAC (sugars k3 d10 k3, PS) was 14%; that for GTCTGAGGCAAACGAA (sugars k3 d10 k3, PS) was 29%. The value for GTCTGATTATCCTGAT (sugars k3 d10 k3, PS) was 33%; that for GTGAGAACTGCTCTAG (sugars k3 d10 k3, PS) was 36%. GTGCCTGGAATTATTA (sugars k3 d10 k3, PS): the target mRNA inhibition turned out to be 39%. With GTGGCAAAATGGCGGA (sugars k3 d10 k3, PS) the figure was 21%. With GTGTAAAACATTGCCT (sugars k3 d10 k3, PS) the figure was 0%; with GTGTGGTTGCCAAGCC (sugars k3 d10 k3, PS), 43% and 37% and 50%. The value for GTGTTATGCCTGGTTA (sugars k3 d10 k3, PS) was 2%; that for GTTAAAAACTTAACGC (sugars k3 d10 k3, PS) was 4%; that for GTTAAGACCATCCCAA (sugars k3 d10 k3, PS) was 19%. With GTTAAGAGAAGCCCAG (sugars k3 d10 k3, PS), the target mRNA inhibition was 20%.

As to GTTAAGTTTTCAGCAG (sugars k3 d10 k3, PS), the target mRNA inhibition worked out at 17%. The value for GTTACATGTTCCCACC (sugars k3 d10 k3, PS) was 37%; that for GTTATGCCTGGTTAGG (sugars k3 d10 k3, PS) was 16%; that for TAAAAAGGCTCGATGG (sugars k3 d10 k3, PS) was 39%. The value for TAAACCTGTGGTGGTC (sugars k3 d10 k3, PS) was 30%; that for TAAACTCACTGCAAGG (sugars k3 d10 k3, PS) was 14%.
